Assay [1] addresses T1, human D4R (CHO-D4R membrane homogenates) (Homo sapiens, UniProt P21917).
T1 sequence (P21917 1-419): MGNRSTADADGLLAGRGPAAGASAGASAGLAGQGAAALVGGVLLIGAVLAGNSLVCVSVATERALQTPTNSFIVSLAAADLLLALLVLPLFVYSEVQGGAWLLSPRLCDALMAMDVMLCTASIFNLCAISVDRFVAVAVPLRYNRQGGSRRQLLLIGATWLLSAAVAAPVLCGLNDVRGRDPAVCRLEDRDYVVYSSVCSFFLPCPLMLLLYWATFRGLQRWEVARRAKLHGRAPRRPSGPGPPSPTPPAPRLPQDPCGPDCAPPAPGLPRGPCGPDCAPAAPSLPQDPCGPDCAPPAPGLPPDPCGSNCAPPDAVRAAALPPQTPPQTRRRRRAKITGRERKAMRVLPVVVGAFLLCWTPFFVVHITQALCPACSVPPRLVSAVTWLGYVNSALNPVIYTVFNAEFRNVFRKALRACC
The experiment in a line: Antagonist radioligand binding assay, D4 receptor. To be noted: 50 μM kurarinone, [3H]methylspiperone, mean of duplicate.

Assay [2] concerns the target hD2L receptor (CHO-D2LR cells) (Homo sapiens, UniProt P14416). Nature of the assay: Functional GPCR assay, intracellular calcium flux, hD2L. The assay is classed as cell-based.
Assay [3] deals with GABAA receptors. The note with it: read-out: EC50 GABAA receptors modulating effect; cited from earlier work.
In assay [4] the test system is BACE 1. To be noted: read-out: IC50 BACE 1; cited from earlier work.
Assay [5] has as its target hD1 receptor (CHO-D1R cells) (Homo sapiens, UniProt P21728). The experiment in a line: Functional GPCR assay, cAMP level. The assay is classed as cell-based.
The target of assay [6] is T2, hD4 receptor (CHO-D4R cells) (Homo sapiens, UniProt P21917).
T2 sequence (P21917 1-419): T1 sequence (P21917 1-419)
Nature of the assay: Functional GPCR assay, cAMP level. The assay is classed as cell-based.

Assay [7] deals with T3, h5-HT1A receptor (Ba/F3-5-HT1AR cells) (Homo sapiens, UniProt P08908).
T3 sequence (P08908 1-422): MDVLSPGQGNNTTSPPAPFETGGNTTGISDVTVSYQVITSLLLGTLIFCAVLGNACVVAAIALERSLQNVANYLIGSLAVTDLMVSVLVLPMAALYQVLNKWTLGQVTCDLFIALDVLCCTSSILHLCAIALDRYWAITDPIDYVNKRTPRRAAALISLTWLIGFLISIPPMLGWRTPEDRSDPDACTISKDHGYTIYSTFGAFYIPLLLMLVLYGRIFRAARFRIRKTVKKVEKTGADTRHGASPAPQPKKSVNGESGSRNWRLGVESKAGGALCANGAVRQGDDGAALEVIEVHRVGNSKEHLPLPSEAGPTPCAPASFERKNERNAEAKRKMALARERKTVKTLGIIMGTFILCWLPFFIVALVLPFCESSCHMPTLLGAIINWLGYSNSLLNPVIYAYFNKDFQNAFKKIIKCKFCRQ
The experiment in a line: Functional GPCR assay, intracellular calcium mobilization, h5-HT1A.

For assay [8], the target named is human D2LR (transfected HEK-293 membrane homogenates) (Homo sapiens, UniProt P14416). The experiment in a line: Antagonist radioligand binding assay, D2L receptor. To be noted: 50 μM kurarinone, [3H]methylspiperone, mean of duplicate.
Sequence of human D2LR (transfected HEK-293 membrane homogenates) (P14416 whole entry): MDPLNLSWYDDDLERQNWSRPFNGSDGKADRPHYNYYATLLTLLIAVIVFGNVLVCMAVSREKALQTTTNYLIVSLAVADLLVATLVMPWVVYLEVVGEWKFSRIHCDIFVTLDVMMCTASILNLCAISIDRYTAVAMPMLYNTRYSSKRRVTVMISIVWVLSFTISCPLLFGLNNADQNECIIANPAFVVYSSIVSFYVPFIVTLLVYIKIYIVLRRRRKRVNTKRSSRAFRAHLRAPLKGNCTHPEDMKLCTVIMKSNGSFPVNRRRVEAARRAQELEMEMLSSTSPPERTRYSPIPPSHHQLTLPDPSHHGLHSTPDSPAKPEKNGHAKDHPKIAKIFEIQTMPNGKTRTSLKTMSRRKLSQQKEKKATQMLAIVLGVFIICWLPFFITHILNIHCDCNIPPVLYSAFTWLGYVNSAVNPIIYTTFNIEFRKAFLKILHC
Assay [9] concerns the target T4, recombinant hMAO-B (Homo sapiens, UniProt P27338).
T4 sequence (P27338 1-520): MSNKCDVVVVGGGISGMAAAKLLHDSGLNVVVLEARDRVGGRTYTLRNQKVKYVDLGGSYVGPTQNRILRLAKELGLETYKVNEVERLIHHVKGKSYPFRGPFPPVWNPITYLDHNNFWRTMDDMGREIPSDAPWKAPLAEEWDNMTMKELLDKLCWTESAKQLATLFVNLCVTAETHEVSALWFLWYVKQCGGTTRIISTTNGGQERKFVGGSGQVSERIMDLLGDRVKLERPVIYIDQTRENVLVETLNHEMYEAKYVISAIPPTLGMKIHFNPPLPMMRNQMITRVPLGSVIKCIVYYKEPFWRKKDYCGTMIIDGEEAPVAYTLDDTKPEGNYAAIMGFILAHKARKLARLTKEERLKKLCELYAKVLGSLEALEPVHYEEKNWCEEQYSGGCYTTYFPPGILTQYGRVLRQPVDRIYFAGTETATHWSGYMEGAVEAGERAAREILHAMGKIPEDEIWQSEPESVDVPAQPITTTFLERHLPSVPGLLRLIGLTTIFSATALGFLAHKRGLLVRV
The experiment in a line: hMAO-B inhibitory assay. The assay is classed as biochemical.

Assay [10] addresses T5, recombinant hMAO-A (Homo sapiens, UniProt P21397).
T5 sequence (P21397 1-527): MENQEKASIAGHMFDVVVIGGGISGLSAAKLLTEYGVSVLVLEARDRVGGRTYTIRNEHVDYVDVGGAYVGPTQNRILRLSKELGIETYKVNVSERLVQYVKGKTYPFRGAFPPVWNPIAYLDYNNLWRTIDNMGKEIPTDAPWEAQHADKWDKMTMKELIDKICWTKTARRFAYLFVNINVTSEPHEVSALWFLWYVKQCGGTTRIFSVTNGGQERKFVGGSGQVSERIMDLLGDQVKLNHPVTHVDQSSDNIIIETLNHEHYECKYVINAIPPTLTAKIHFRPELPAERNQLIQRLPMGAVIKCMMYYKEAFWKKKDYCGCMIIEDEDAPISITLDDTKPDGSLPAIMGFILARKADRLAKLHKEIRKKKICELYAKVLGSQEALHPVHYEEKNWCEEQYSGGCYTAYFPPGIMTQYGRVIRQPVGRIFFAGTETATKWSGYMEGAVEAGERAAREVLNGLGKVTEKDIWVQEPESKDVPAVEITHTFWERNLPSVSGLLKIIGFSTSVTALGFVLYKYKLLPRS
Nature of the assay: hMAO-A inhibitory assay. The assay is classed as biochemical.

In assay [11] the target is human D1R (recombinant CHO-D1R membrane homogenates) (Homo sapiens, UniProt P21728). Nature of the assay: Antagonist radioligand binding assay, D1 receptor. The note with it: 50 μM kurarinone, [3H]SCH-23390, mean of duplicate.
Sequence of human D1R (recombinant CHO-D1R membrane homogenates) (P21728 whole entry): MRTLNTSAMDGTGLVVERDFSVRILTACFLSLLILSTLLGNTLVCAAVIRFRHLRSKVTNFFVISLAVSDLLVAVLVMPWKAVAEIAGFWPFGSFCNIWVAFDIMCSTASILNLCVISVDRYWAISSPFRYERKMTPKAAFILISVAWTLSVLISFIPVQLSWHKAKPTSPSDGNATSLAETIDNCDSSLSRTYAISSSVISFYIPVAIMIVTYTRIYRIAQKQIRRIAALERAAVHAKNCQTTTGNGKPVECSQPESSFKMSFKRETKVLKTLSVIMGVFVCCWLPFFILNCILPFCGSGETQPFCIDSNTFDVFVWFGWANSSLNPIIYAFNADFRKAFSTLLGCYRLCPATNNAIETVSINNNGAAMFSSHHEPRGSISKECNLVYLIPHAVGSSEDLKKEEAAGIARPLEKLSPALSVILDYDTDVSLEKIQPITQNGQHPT
Assay [12] relates to AChE. The note with it: read-out: IC50 AChE; cited from earlier work.
Assay [13] has as its target human V1AR (recombinant CHO-V1AR membrane homogenates) (Homo sapiens, UniProt P37288). The experiment in a line: Agonist radioligand binding assay, vasopressin V1A receptor. To be noted: read-out: % inhibition of control-specific binding.
Assay [14] addresses human D3R (CHO-D3R membrane homogenates) (Homo sapiens, UniProt P35462). The experiment in a line: Antagonist radioligand binding assay, D3 receptor. To be noted: read-out: % inhibition of control-specific binding.
Assay [15] deals with BChE. The note with it: read-out: IC50 BChE; cited from earlier work.
The subject of assay [16] is hMAO-A. To be noted: read-out: IC50 hMAO-A; selective hMAO-A inhibition; cited from earlier work.
The mark [17] stands for this setting: read-out: % inhibition of control agonist effect.

Sequence of hD2L receptor (CHO-D2LR cells) (P14416 whole entry): as the sequence (P14416 whole entry) above
Sequence of hD1 receptor (CHO-D1R cells) (P21728 whole entry): as the sequence (P21728 whole entry) above
Sequence of human V1AR (recombinant CHO-V1AR membrane homogenates) (P37288 whole entry): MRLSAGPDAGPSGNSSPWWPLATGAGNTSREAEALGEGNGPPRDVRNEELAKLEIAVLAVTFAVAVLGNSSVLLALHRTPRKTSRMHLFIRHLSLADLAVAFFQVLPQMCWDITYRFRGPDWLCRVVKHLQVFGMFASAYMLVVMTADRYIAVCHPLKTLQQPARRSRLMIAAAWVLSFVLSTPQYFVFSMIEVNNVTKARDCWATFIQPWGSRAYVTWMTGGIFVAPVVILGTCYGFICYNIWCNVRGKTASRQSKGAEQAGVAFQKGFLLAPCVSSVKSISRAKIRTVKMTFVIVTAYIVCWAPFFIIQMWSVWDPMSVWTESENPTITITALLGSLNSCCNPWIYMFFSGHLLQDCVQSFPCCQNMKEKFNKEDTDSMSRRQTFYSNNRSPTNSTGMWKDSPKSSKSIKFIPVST
Sequence of human D3R (CHO-D3R membrane homogenates) (P35462 whole entry): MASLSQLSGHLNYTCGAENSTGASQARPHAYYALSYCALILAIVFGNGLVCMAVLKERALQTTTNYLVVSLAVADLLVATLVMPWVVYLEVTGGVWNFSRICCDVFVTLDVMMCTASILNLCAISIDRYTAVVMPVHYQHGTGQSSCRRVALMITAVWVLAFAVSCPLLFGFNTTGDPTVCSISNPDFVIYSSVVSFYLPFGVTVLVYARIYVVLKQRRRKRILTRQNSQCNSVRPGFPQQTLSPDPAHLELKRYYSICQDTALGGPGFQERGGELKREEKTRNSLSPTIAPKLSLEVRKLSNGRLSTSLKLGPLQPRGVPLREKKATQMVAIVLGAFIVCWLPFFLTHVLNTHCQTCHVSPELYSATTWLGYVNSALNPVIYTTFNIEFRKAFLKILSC

`C=C(C)[C@H](CC=C(C)C)Cc1c(O)cc(OC)c2c1O[C@H](c1ccc(O)cc1O)CC2=O` [kurarinone]: the “% inhibition of control-specific binding” value in assay [1] is given as 71.1%; in [8], 78.5%; in [11], more than 70%; in assay [11] (listed as Kurarinone), 99.1%. The “agonist response in antagonist mode assay” value in assay [2] (100 μM, D2LR, antagonist mode) was “at least 25%”. Further, the “% stimulation of control agonist effect” value is 113 ± 28.9% in [2] (100 μM, hD2L, agonist mode, control 10 μM DA); 0.25 ± 0.64% in [5] (100 μM, hD1, agonist mode, control 10 μM DA); 71.7 ± 6.36% in assay [6] (100 μM, hD4, agonist mode, control 1000 nm DA); 17.8 ± 1.13% in assay [7] (100 μM, h5-HT1A, agonist mode, control 0.625 μM 5-HT). In addition, the “agonist or agonist-like effect flag in antagonist mode” value in assay [2] (100 μM, hD2L, antagonist mode) is reported as “AGO (the test compound induced at least 25% agonist or agonist-like effect at this concentration)”. Also, the EC50 in assay [2] (EC50 (50% of control agonist effect), hD2L, agonist mode, mean ± S.D., duplicate) was 22.4 ± 3.46 µM; in [3] it was 8.1 ± 1.4 µM; in assay [6], 71.3 ± 4.94 µM. Further, the inhibition at 100 µM in assay [2] (setting [17]) is 43.8%; in assay [5] (setting [17]), 98.5%; in [6] (setting [17]) it was -4.2%; in [7] (setting [17]), 30.3%. Besides, the IC50 in [4] was 24.5 ± 1.73 µM; in assay [9] it was 198 ± 12.7 µM; in assay [10] it was 186 ± 6.17 µM; in [12], 74.3 ± 7.85 µM; in [15], 5.29 ± 0.67 µM. Moreover, the “Inhibition type hMAO-B” value in [9] (Lineweaver-Burk plots) is listed as “mixed”. The inhibitory constant (Ki) in assay [10] (Ki hMAO-A, Dixon and secondary plots) is 65.1 ± 3.53 µM. The “Inhibition type hMAO-A” value in [10] (Lineweaver-Burk plots) was “competitive”. For the same compound, the inhibition at 50 µM in [13] is 47.6%; in assay [14], 49.2%.

As for `C=C(C)[C@H](CC=C(C)C)Cc1c(O)cc(O)c2c1O[C@H](c1ccc(O)cc1O)CC2=O` [sophoraflavone G], the IC50 in [16] is 38.8 ± 1.1 µM.

Source of the values: article PMC8674921 (ACS Omega, 2021).
